# Measured values as given in US5614548A, “Quaternary amine containing ether or ester lipid derivatives and therapeutic compositions” (priority 1994, dated 1997).
# Where “and” joins values, the source holds several entries; their conditions need not be identical. Equal values may be shown once. Read-outs that look alike come from different tables or passages of the source.
# How the values were obtained:
# [1] = test system: ChaGo cells; assay: Cytostatic activity on ChaGo cells; type: cell-based, human
# Procedure: (§1) All cells were grown in Eagle's minimum essential medium supplemented with 10% fetal bovine serum with the exception of HL-60 and K562-4 cells which were grown in RPMI 1640 medium supplemented with 10% fetal bovine serum. The KB and MH1 C1 cells, from a human nasopharyngeal carcinoma and rat hepatoma, respectively, were from American Type Culture Collection. The ChaGo cells, a human lung carcinoma, was generously provided by Dr. A. H. Tashjian. The human promyeloblastic leukemia cells, K562-4 were kindly supplied by Dr. Bismarck Lozzio. HL-60 cells, a human promyelocytic leukemia, and P388 cells, a mouse leukemia, were obtained from Dr. Y.-C. Cheng. The 77 cells were put into culture by us by excising the 7777, Morris hepatoma from a rat graciously supplied by the late Dr. H. P. Morris.
# (§2) Cells were transferred or removed from monolayers for counting after a one or two minute incubation with 0.02% sodium ethylenediamine tetraacetate in phosphate-buffered saline to dislodge the cells. Flasks were seeded at a density of 1×10^3 cells per cm^2 or 2×10^4 per milliliter for suspension cultures. The HL-60 and K562-4 suspension cultures were used about 24 hours after seeding. The compounds to be tested were diluted to various concentrations and added to the monolayer cultures. All of the test compounds were dissolved in 10% dimethyl sulfoxide (DMSO) at concentrations that would give a final DMSO concentration of 0.1%. Control flasks contained 0.1% DMSO. Control cell replication was followed until approximately three doublings had occurred, and then all of the treated cells were counted.
# [2] = test system: KB cells; assay: Cytostatic activity on KB cells; type: cell-based; conditions: Homo sapiens; KB cells, after controls doubled three times; read-out: IC50 KB
# Procedure: as §1, §2
# (§3) The KB cells represented cells with low alkyl cleavage activity (less than the detectable level of 0.1-0.2 units per milligram protein by our assay procedure) and the 77 cells represented cells similar to normal cells with relatively high alkyl cleavage activity (1.6 units per milligram of protein). Our value for the cleavage activity of cultured 77 cells agrees well with the value of 1.4 units per milligram of protein reported by Soodsma et al, Cancer Res. 30, 309 (1970), for freshly excised 7777 Morris hepatoma tissue. In further confirmation of our assay procedure, we obtained a value of 12.6±4.1 units per milligram of protein in excised rat liver compared to 7.3 units per milligram of protein in rat liver measured by Soodsma et al.
# [3] = test system: 77 cells; assay: Cytostatic activity on 77 cells; type: cell-based, rat; conditions: for IC50: 77 cells, after controls doubled three times; for 77/KB: ratio of IC50 values ± standard error of the quotient
# Procedure: as §1, §2, §3
# [4] = test system: K562-4 cells; assay: Cytostatic activity on K562-4 cells; type: cell-based; conditions: Homo sapiens; K562-4 (printed X562-4)
# Procedure: as §1, §2
# [5] = test system: reverse transcriptase; assay: Reverse transcriptase activity in HIV-1 infected CEM-SS cells; type: cell-based, human immunodeficiency virus type 1 (HIV-1); conditions: for reverse transcriptase activity: in words; for activity at 0.2 µM / activity at 0.4 µM / activity at 2 µM: Human immunodeficiency virus 1, CEM-SS, read-out: RT Activity, % of Control
# Procedure: (§4) By way of further background, in our assay HIV-1 syncytial plaques are seen as large, multicellular foci (10 to 25 nuclei/syncytium) that appear either brown and granular or clear. Since the number of HIV-1 syncytial plaques correlates with reverse transcriptase (RT) and p24 core antigen activity in the HIV-1 infected cell overlay fluids, the syncytial plaque assay can be used to quantify the amount of infectious virus. Reverse transcriptase activity was assayed according to a described procedure (B. J. Poeisz et al., Proc. Natl. Acad. Sci. (U.S.A.) […], 7415 (1980)). The activity of p24 core antigen induced by HIV-1 infection of CEM-SS cells was measured spectrophotometrically using the commercial Abbott EIA.
# (§5) In brief, CEM-SS cells were infected with HIV-1. At various times after infection (3, 6, 8, 10, 13 days) the overlay fluids were replaced with fresh medium. Overlay fluids replaced on days 8, 10 and 13 were saved at -80° C. to measure HIV-1 plaque forming units according to our described protocol above and RT activity (described by Poiesz et al., Proc. Natl. Acad. Sci. U.S.A. 77, 7415 (1980). Results are given in Table 8 below.
# [6] = test system: CEM-SS cells; assay: CEM-SS cell growth (3H-TdR uptake); type: cell-based; conditions: Homo sapiens, 48 hours, N = 3, read-out: Inhibitory Concentration50 CEM-SS Cell Growth
# Text: (§6) Next investigated were the correlations of EL analog structure with anti-HIV-l and anti-cell growth. The experimental method used six serial two-fold dilutions of EL that spanned concentrations above and below a concentration that inhibits HIV-1 plaque count, cell growth (^3 H-TdR uptake into cell DNA) or in vitro PKC activity by 50% (inhibitory concentration50 =IC50) compared to an appropriate mock treated control. Table 7 summarizes data on IC50 of phosphorus and non-phosphorus compounds for HIV-1 plaque formation and cell growth.
# formation are x ± one SD., N = 4. CEMSS cell growth is measured in
# suspension cultures by treating the cells with compound for 48 hours at
# 37° C. and then adding 1 μCi of ^3 HTdR (S.A. = 20 Ci/mmole
# for 8 hours at 37° C. to measure DNA synthesis. IC50 values
# for CEMSS growth are x of a representative experiment, N = 3.
# [7] = test system: HL60 human leukemia cell line; assay: HL60 cell growth inhibition (trypan blue, 48 h); type: cell-based; conditions: for IC50: HL60, 48 hours
# Procedure: A number of the compounds disclosed herein have been tested against the HL60 human leukemia cell line to assess their cytotoxic potential. These analogs were investigated in parallel with ET-18-OMe which was used as the reference compound. The methodologies used in this investigation were the same as described in A. Noseda, M. Berens, C. Piantadosi, and E. J. Modest, Lipids 22, 878-883, 1987. In brief, HL60 cells at a concentration of […] were incubated in wells with one milliliter medium with the experimental drug in parallel with the same concentration of cells with ET-18-OMe (standard) or EtOH (control). After 48 hours of incubation the cells were counted using the trypan blue dye exclusion technique to determine the effect of the drug on cell growth. The experimental drug and ET-18-OMe were tested at the same concentrations, e.g., 10, 5, 2.5 and 1.25 μM.
# [8] = test system: HIV-1; assay: Infectious HIV-1 multiplication (plaque forming units); type: cell-based, human immunodeficiency virus type 1 (HIV-1); conditions: for infectious virus production: in words; for activity at 0.2 µM / activity at 0.4 µM / activity at 2 µM: read-out: Plaque Forming Units, % of Control
# Procedure: as §5
# [9] = test system: HIV-1; assay: HIV-1 plaque assay, inhibitor added 60 minutes after infection; type: cell-based, human immunodeficiency virus type 1 (HIV-1)
# Text: (§7) Dextran sulfate was used as a positive control. […] Plaques were counted at five days after infection.
# as §4
# (§8) Compound E inhibited HIV-1 plaque count 43%, 83%, and 91% at concentrations of 0.2, 0.4, and 2.0 μM, respectively, compared to untreated controls. […] In other experiments addition of 0.2, 0.4 and 2.0 μM Compound E starting sixty minutes after HIV-1 infection inhibited HIV-1 plaque formation 28%, 59% and 97% respectively, compared to untreated controls.
# as §6
# ^1 Serial 2fold dilutions of compounds are used. HIV1 plaque formatio
# is measured in CEMSS cell monolayers by having compound present starting
# sixty minutes after virus infection. IC50 values for HIV1 plaque
# formation are x ± one SD., N = 4. CEMSS cell growth is measured in […]
# [10] = test system: HIV-1; assay: HIV-1 plaque assay, inhibitor added 30 minutes before infection; type: cell-based, human immunodeficiency virus type 1 (HIV-1)
# Text: as §7, §4, §8
# [11] = test system: MH1 C1 cells; assay: Cytostatic activity on MH1 C1 cells; type: cell-based, rat
# Procedure: as §1, §2
# [12] = Human immunodeficiency virus 1, 192 h, day 8
# [13] = Human immunodeficiency virus 1, 240 h, day 10
# [14] = Human immunodeficiency virus 1, 312 h, day 13
smiles,measurement,setting,value
"CCCCCCCCCCCCCCCCOCC(C[N+](C)(C)CCO)OC(C)=O.[I-] (racemic) [XI, (±)-3-hexadecyloxy-2-acetoxy-N,N-dimethyl-N-β-hydroxyethyl-1-propyl ammonium iodide]",IC50,[1]; Homo sapiens,1200 nM
same,IC50,[2],430 ± 50 nM
same,IC50,[3],1350 ± 640 nM
same,77/KB,[3],3.1 ± 1.51
same,IC50,[4],3500 nM
"CCCCCCCCCCCCCCCCCCOCC(COP(=O)([O-])OCC[N+](C)(C)C)OC (racemic) [ET-18-OMe, (±)-1-O-octadecyl-2-O-methylglycero-3-phosphocholine, reference compound]",reverse transcriptase activity,[5]; 13 days,reverse transcriptase activity increases
same,activity at 0.2 µM,"[5]; 192 h, day 8",54%
same,activity at 0.4 µM,"[5]; 192 h, day 8",15%
same,activity at 2 µM,"[5]; 192 h, day 8",6%
same,activity at 0.2 µM,"[5]; 240 h, day 10",192%
same,activity at 0.4 µM,"[5]; 240 h, day 10",90%
same,activity at 2 µM,"[5]; 240 h, day 10",6%
same,activity at 0.2 µM,"[5]; 312 h, day 13",94%
same,activity at 0.4 µM,"[5]; 312 h, day 13",161%
same,activity at 2 µM,"[5]; 312 h, day 13",174%
same,reverse transcriptase activity,[5]; between 8 and 10 days,markedly inhibit infectious virus production and reverse transcriptase activity in a dose-dependent manner
same,IC50,[6],4400 nM
same,IC50,"[7]; ET-18-OMe reference run in parallel with the analog of the line, 2880 min, read-out: ID50, ET-18-OMe",1900 nM and 2300 nM and 2200 nM
same,cytotoxic activity against HL60,"[7]; HL60, in words",shows an activity that is consistent with previous reports against the cell line tested
same,IC50,"[7]; Homo sapiens, HL-60, 48 h, ET-18-OMe reference run in parallel with the analog of the line, read-out: ID50, ET-18-OMe",1700 nM
same,IC50,"[7]; Homo sapiens, HL-60, 48 h, read-out: ID50 (the source's name)",2500 nM
same,infectious virus production,[8]; 13 days,infectious virus production is still inhibited
same,activity at 0.2 µM,[8]; [12],395%
same,activity at 0.4 µM,[8]; [12],25%
same,activity at 2 µM,[8]; [12],0%
same,activity at 0.2 µM,[8]; [13],287%
same,activity at 0.4 µM,[8]; [13],30%
same,activity at 2 µM,[8]; [13],33%
same,activity at 0.2 µM,[8]; [14],89%
same,activity at 0.4 µM,[8]; [14],35%
same,activity at 2 µM,[8]; [14],30%
same,infectious virus production,[8]; between 8 and 10 days,markedly inhibit infectious virus production
same,anti-HIV-1 activity,"[9]; HIV-1 plaque formation, in words",potent anti-HIV activity
same,inhibition at 2 µM,"[9]; Human immunodeficiency virus 1, 1 h",64%
same,inhibition at 0.2 µM,"[9]; Human immunodeficiency virus 1, 1 h, 0.2 μM, 60 minutes after infection",0%
same,inhibition at 0.4 µM,"[9]; Human immunodeficiency virus 1, 1 h, 0.4 μM, 60 minutes after infection",0%
same,IC50,"[9]; Human immunodeficiency virus 1, CEM-SS monolayers, compound from sixty minutes after infection, N = 4, read-out: Inhibitory Concentration50 HIV-1 Plaque Formation",1400 ± 450 nM
same,inhibition at 0.2 µM,"[10]; Human immunodeficiency virus 1, 0.2 μM, 30 minutes before infection, Table 6",0%
same,inhibition at 0.4 µM,"[10]; Human immunodeficiency virus 1, 0.4 μM, 30 minutes before infection, Table 6, read-out: Inhibition (%)",9%
same,inhibition at 2 µM,"[10]; Human immunodeficiency virus 1, 2.0 μM, 30 minutes before infection, Table 6",45%
same,antiviral activity (HIV-1 plaque formation),"[10]; added before or after infection, in words",antiviral activity
"CCCCCCCCCCCCCCCCCCOCC(O)C[N+](C)(C)CCO.[I-] (racemic) [X, (±)-3-octadecyloxy-2-hydroxy-N,N-dimethyl-N-β-hydroxyethyl-1-propyl ammonium iodide]",IC50,[1],2800 nM
same,IC50,[1]; Homo sapiens,1700 nM
same,IC50,[2],350 ± 50 nM
same,IC50,[3],1330 ± 400 nM
same,77/KB,[3],2.9 ± 0.96
same,IC50,[4],2500 nM
"CCCCCCCCCCCCCCCCCCOCCC[N+](C)(C)CCO.[I-] [XIII, 3-octadecyloxy-N,N-dimethyl-N-β-hydroxyethyl-1-propyl ammonium iodide]",IC50,[2],700 ± 80 nM
same,sensitivity of MH1 C1 cells relative to 77 cells,[11]; MH1 C1 vs 77 cells,two to three times less sensitive to growth inhibition than 77 cells
same,IC50,"[11]; Rattus norvegicus, MH1C1, MH1 C1",2900 nM
same,IC50,[3],2500 ± 900 nM
same,77/KB,[3],4.3 ± 1.60
same,IC50,[4],1400 nM
